In brackets after ≈: the same amount, converted by molar mass.
What was measured:
[1] = Human liver microsome (HLM) metabolic stability assay; assay type: in vitro ADME; settings: human liver microsomes
Summary of the method: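 Compound at 1 uM incubated with human liver microsomes at 37° C. for 60 min after NADPH addition. Aliquots quenched in cold acetonitrile at 0, 5, 15, 30 and 60 min and analysed by LC/MS/MS. t1/2 from ln(% remaining) vs time slope; CLint, CLh and % Qh derived from it (n=1).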

[2] = biological target: human soluble guanylate cyclase alpha 1 and beta 1 subunits (sGC) (Homo sapiens (Human), UniProt Q02108+Q02153); assay: sGC cellular activator assay (cGMP, HTRF), in the presence and absence of 50% human serum; assay type: cell-based; settings: CHO cells stably expressing human sGC alpha 1/beta 1, preincubated with 40 microM ODQ; cGMP by HTRF; Table 2 does not state whether with or without 50% human serum
Sequence of human soluble guanylate cyclase alpha 1 and beta 1 subunits (sGC) (Q02108 whole entry partner): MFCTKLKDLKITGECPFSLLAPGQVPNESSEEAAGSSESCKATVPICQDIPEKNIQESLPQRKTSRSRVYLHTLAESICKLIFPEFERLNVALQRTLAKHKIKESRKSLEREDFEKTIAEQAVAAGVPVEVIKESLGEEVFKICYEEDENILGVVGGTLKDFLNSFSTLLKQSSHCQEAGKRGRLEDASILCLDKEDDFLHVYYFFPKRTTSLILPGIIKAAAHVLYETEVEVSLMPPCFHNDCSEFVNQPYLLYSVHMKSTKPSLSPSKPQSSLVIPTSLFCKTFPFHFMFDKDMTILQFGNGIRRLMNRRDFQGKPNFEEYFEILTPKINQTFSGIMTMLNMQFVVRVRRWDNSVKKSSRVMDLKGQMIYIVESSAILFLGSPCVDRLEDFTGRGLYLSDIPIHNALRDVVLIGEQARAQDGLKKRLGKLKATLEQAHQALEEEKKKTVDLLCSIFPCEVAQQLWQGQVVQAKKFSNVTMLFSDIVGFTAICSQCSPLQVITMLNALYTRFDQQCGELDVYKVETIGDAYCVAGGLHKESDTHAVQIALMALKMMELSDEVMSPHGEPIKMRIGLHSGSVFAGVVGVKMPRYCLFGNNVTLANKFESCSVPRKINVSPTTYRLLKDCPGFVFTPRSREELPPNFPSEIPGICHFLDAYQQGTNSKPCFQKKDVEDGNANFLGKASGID
Sequence of human soluble guanylate cyclase alpha 1 and beta 1 subunits (sGC) (Q02153 whole entry): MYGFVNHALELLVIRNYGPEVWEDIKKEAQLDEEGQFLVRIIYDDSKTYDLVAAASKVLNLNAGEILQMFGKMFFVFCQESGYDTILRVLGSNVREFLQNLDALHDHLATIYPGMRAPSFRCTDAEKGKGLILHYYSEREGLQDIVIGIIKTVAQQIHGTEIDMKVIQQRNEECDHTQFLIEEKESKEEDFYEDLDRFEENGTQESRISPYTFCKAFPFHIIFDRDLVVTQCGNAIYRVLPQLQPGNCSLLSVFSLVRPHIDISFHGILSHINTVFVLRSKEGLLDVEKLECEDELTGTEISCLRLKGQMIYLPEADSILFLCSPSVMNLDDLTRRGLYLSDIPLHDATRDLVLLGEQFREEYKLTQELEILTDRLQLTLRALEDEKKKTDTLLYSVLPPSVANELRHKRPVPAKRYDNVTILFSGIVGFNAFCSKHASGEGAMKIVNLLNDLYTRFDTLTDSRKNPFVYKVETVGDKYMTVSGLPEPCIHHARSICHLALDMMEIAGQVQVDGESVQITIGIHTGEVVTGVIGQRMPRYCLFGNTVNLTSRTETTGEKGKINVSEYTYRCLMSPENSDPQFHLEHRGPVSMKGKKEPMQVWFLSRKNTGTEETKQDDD
Summary of the method: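 Heme-oxidized conditions: ODQ (40 microM, 1 h) pretreatment of CHO cells stably expressing human α1/β1 sGC, in buffer containing 0.1% BSA and IBMX.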

physchem = settings: kinetic from dmso stock
[3] = pH 2.2, aqueous buffer, Solubility (pH 2.2)
[4] = pH 4.5, aqueous buffer, Solubility (pH 4.5)
[5] = pH 6.8, aqueous buffer, Solubility (pH 6.8)

Metabolic stability (Qh %), % hepatic blood flow [1] | EC50 [2] | solubility at 24 h (physchem; [3]) | solubility at 24 h (physchem; [4]) | solubility at 24 h (physchem; [5]) | SMILES
33% | 22 nM | 100 µg/mL (≈ 190 µM) | 83 µg/mL (≈ 158 µM) | 39 µg/mL (≈ 74.2 µM) | Cc1ccc(OCc2ccc3c(c2)CCN(C2COC2)C3)c(-c2cccc(N3CC[C@@]4(C(=O)O)C[C@H]4C3)n2)c1 [Compound 17]
<24% | 10 nM | 140 µg/mL (≈ 230 µM) | 100 µg/mL (≈ 165 µM) | 99 µg/mL (≈ 163 µM) | COc1cc(COc2c(C)cccc2-c2csc(N3CC[C@@H](C(=O)O)[C@@H](OC)C3)n2)cc2c1CN(C1CCOCC1)CC2 [Compound 171]
<24% | 3 nM | 120 µg/mL (≈ 203 µM) | 68 µg/mL (≈ 115 µM) | 41 µg/mL (≈ 69.5 µM) | Cc1cc(COc2c(C)cccc2-c2csc(N3CC[C@@]4(C(=O)O)C[C@H]4C3)n2)cc2c1CN(CC1COCCO1)CC2 (some centres unmarked) [Compound 91]
<24% | 28 nM | 97 µg/mL (≈ 169 µM) | 72 µg/mL (≈ 125 µM) | 63 µg/mL (≈ 110 µM) | Cc1cc(COc2c(C)cccc2-c2csc(N3C[C@H]4C[C@@]4(C(=O)O)[C@@H]3C)n2)cc2c1CN(C1CCOCC1)CC2 [Compound 157]
34% | 2 nM | 130 µg/mL (≈ 229 µM) | 99 µg/mL (≈ 174 µM) | 38 µg/mL (≈ 66.9 µM) | Cc1ccc(OCc2ccc3c(c2C)CCN(C2CCOCC2)C3)c(-c2cccc(N3CC[C@@]4(C(=O)O)C[C@H]4C3)n2)c1 [Compound 18]
<24% | 23 nM | 150 µg/mL (≈ 249 µM) | 130 µg/mL (≈ 216 µM) | 92 µg/mL (≈ 153 µM) | COc1cc(COc2ccc(C)cc2-c2cccc(N3CC[C@H](C(=O)O)[C@H](OC)C3)n2)cc2c1CN(C1CCOCC1)CC2 [Compound 80]
45% | 2 nM | 97.4 µg/mL (≈ 156 µM) | 59.4 µg/mL (≈ 95.2 µM) | 56.8 µg/mL (≈ 91.1 µM) | CO[C@@H]1CN(c2nc(-c3cc(F)cc(C)c3OCc3ccc4c(c3)[C@@H](C)CN(C3CCOCC3)CC4)cs2)CC[C@@H]1C(=O)O [Compound 328]
<24% | 12 nM | 120 µg/mL (≈ 203 µM) | 86 µg/mL (≈ 145 µM) | 77 µg/mL (≈ 130 µM) | CO[C@H]1CN(c2nc(-c3cccc(C)c3OCc3ccc4c(c3C)CCN(C3CCOCC3)C4)cs2)CC[C@H]1C(=O)O [Compound 165]
89% | 3 nM | 151 µg/mL (≈ 243 µM) | 82 µg/mL (≈ 132 µM) | 57.1 µg/mL (≈ 92.1 µM) | CCO[C@H]1CN(c2cccc(-c3cccc(Cl)c3OCc3cc(C)c4c(c3)CCN(C3CCOCC3)C4)n2)CC[C@H]1C(=O)O [Compound 256]
<24% | 363 nM | 132 µg/mL (≈ 219 µM) | 77.2 µg/mL (≈ 129 µM) | 68.8 µg/mL (≈ 115 µM) | CO[C@H]1CN(c2cccc(-c3cccc(C)c3OCc3ccc4c(c3C)CCN(C3CCOCC3)CC4)n2)CC[C@@H]1C(=O)O [Compound 296]
44% | 40 nM | 167 µg/mL (≈ 274 µM) | 162 µg/mL (≈ 266 µM) | 158 µg/mL (≈ 259 µM) | COC[C@H]1N(c2cccc(-c3cccc(C)c3OCc3cc(C#N)c4c(c3)CCN(C3CCOCC3)C4)n2)C[C@@H]2C[C@@]21C(=O)O [Compound 217]
<24% | 10 nM | 143 µg/mL (≈ 233 µM) | 135 µg/mL (≈ 221 µM) | 129 µg/mL (≈ 211 µM) | COC[C@H]1N(c2cccc(-c3cccc(C)c3OCc3cc(C)c4c(c3C)CCN(C3CCOCC3)C4)n2)C[C@@H]2C[C@@]21C(=O)O [Compound 215]
<24% | 71 nM | 110 µg/mL (≈ 192 µM) | 95 µg/mL (≈ 166 µM) | 64 µg/mL (≈ 112 µM) | CO[C@@H]1CN(c2cccc(-c3cc(C)ccc3OCc3cc(C)c4c(c3)CCN(C3CCOC3)C4)n2)CC[C@@H]1C(=O)O (some centres unmarked) [Compound 77]
<24% | 20 nM | 120 µg/mL (≈ 210 µM) | 100 µg/mL (≈ 175 µM) | 80 µg/mL (≈ 140 µM) | CO[C@@H]1CN(c2cccc(-c3cc(C)ccc3OCc3ccc4c(c3)CCN(C3CCOCC3)C4)n2)CC[C@@H]1C(=O)O [Compound 74]
<24% | 150 nM | 134 µg/mL (≈ 224 µM) | 93.7 µg/mL (≈ 156 µM) | 77.3 µg/mL (≈ 129 µM) | CO[C@@H]1CN(c2cccc(-c3cccc(C)c3OCc3ccc4c(c3C)CCN(C3CCOCC3)CC4)n2)CC[C@H]1C(=O)O [Compound 297]
30% | 340 nM | 108 µg/mL (≈ 231 µM) | 81.2 µg/mL (≈ 173 µM) | 0.7 µg/mL (≈ 1.49 µM) | Cc1c(COc2ccccc2-c2cccc(N3CC[C@@]4(C(=O)O)C[C@H]4C3)n2)ccc2c1CCNC2 [Compound 305]
